Measurements: US20250170131A1, “METHOD FOR THE TREATMENT OF ANTERIOR ISCHEMIC OPTIC NEUROPATHY” (Nicox SA, priority 2022, published 2025)
Entries after “also recorded” stand apart in the source; their conditions may differ.

Columns and labels:
[1] = test system: endothelin-1 (ET-1)-induced ischemia/reperfusion injury of optic nerve head and retina; assay: OA-RI by Echo-Color-Doppler, Compound (I) vs des-nitro Compound (Ia) (Example 2); format: in vivo, rabbits; settings: for OA-RI, ET-1 + treatment Week 3 / OA-RI, ET-1 + treatment Week 4 / OA-RI, ET-1 + treatment Week 5 / OA-RI, ET-1 + treatment Week 6: Cpd (I) 1.0% / Cpd (Ia) 0.93% (equimolar), topical twice daily from week 3; for OA-RI, ET-1 (1st dose) Week 2: ET-1 only, before treatment; for Effect on OA-RI / ocular perfusion (in words): ET-1 rabbit model, equimolar doses, weeks 3-6; for OA-RI, Baseline Week 0: before ET-1 and treatment
Experimental: This study evaluated the ocular hemodynamic effects of repeated topical ocular dosing of Compound (I) in comparison to its des-nitro derivative Compound (Ia) administered at equimolar doses in rabbits with endothelin-1 (ET-1)-induced ischemia/reperfusion injury of optic nerve head and retina. Method: ET-1 was injected next to the optic nerve head twice/week for 6 weeks. Animals received Compound (I) (1% twice daily, 6 days/week), Compound (Ia) (0.93%, equimolar to 1% Compound (I)) or vehicle from week 3 until the end of ET-1 treatment. Functional endpoint was ophthalmic artery resistive index (OA-RI) determined using an Echo-Color-Doppler.

[2] = test system: ischemia/reperfusion injury of the optic nerve induced by the subtenon injection of endothelin-1 (ET-1) in rabbits; assay: Ophthalmic artery resistive index (OA-RI) by Echo Color Doppler, ET-1 ischemia/reperfusion model (Example 1); format: in vivo, New Zealand white (NZW) rabbits; settings: for Ophthalmic artery resistive index (OA-RI), Baseline: prior to ET-1 dosing (time 0), before test item; for OA-RI, ET-1 (4-weeks) + Test items (2 weeks daily bid): week 4; for OA-RI, ET-1 (4-weeks) + Test items (2 weeks daily bid) / OA-RI, ET-1 (6 weeks) + Test items (4 weeks daily bid): 1% w/w, 30 microL/eye topical twice daily; for OA-RI, ET-1 (6 weeks) + Test items (4 weeks daily bid): week 6
Experimental: (§1) These experiments were performed to determine the effects of [(2S)-1-(4-{[(3-chloro-4-methoxyphenyl)methyl]amino}-5-{[(pyrimidin-2yl)methyl]carbamoyl}pyrimidin-2-yl)pyrrolidin-2-yl]methyl 6-(nitrooxy)hexanoate (Compound (I)) on ocular vascular reactivity and retinal function after ocular topical dosing in a model of ischemia/reperfusion injury of the optic nerve induced by the subtenon injection of endothelin-1 (ET-1) in rabbits.
(§2) Adult male New Zealand white (NZW) rabbits weighting 1.5-2.0 kg were used. All animals received a single 30 microL/eye topical dose of Compound (I) (1% w/w) or vehicle (Kolliphor® EL 5.0% w/w, Myrj™ S40 3.0% w/w, Kollisolv® PEG400 2.8% w/w, H3BO3 0.19% w/w, Na2HPO4·7H2O 0.51% w/w, EDTA 0.10% w/w, BAK 0.01% w/w, HCl 0.5N q.s. pH 6.6, purified water q.s. 100 g) twice daily for 4 consecutive weeks starting 2 weeks after Endothelin-1 (ET-1) first dosing.
(§3) Ischemia/reperfusion injury was induced in each animal by subtenon injection (twice/week for 6 weeks) of 200 microL of 250 nM ET-1 dissolved in water using a lacrimal cannula under anaesthesia produced by ketamine and xylazine injected intramuscularly.
Ophthalmic Artery Resistive Index (OA-RI) measurements were taken using an Echo Color Doppler prior to ET-1 treatment (baseline, time 0), and weekly thereafter till the end of the study. Pourcelot resistive index for ophthalmic artery (OA-RI) was calculated using the following formula: (OA-PSV−OA-EDV)/OA-PSV where OA-PSV and OA-EDV refer to Ophthalmic Artery Peak Systolic Velocity and Ophthalmic Artery End Diastolic Velocity, respectively.
(§4) Measurements were taken prior to ET-1 first dose (baseline, time 0), then at the end of week 2 (prior to vehicle- or Compound (I) first day-first dose) and at the end of week 6.

[3] = test system: ischemia/reperfusion injury of the optic nerve induced by the subtenon injection of endothelin-1 (ET-1) in rabbits; assay: Electroretinogram (ERG) recording, ET-1 ischemia/reperfusion model (Example 1); format: in vivo, New Zealand white (NZW) rabbits
Experimental: as §1, §2, §3
Electroretinogram (ERGs) recording took place under topical anaesthesia. The eyes were also dilated by topical application of tropicamide 1% and, when needed, adapted to darkness for at least 2 hours prior to ERGs recording. ERGs recording were performed with standard contact lens corneal electrodes. Specifically, the dark-adapted 0.01 ERG (mostly rod response), dark-adapted 3.0 ERG (combined rod/cone response) and, light-adapted 3.0 (mostly cone response) were recorded.
as §4

[4] = test system: blood flow nearby the optic nerve head and choroid; settings: systemic dosing; British J Ophthalmology 83 (1999); cited from earlier work

For `COc1ccc(CNc2nc(N3CCC[C@H]3COC(=O)CCCCCO)ncc2C(=O)NCc2ncccn2)cc1Cl` [Compound (Ia), [(2S)-1-(4-{[(3-Chloro-4-methoxyphenyl)methyl]amino}-5-{[(pyrimidin-2-yl)methyl]carbamoyl}pyrimidin-2-yl)pyrrolidin-2-yl]methyl 6-hydroxyhexanoate, reference compound], the “OA-RI, ET-1 + treatment Week 3” value [1] was 0.49 ± 0.00, the “OA-RI, ET-1 + treatment Week 4” value [1] was 0.47 ± 0.01 and the “OA-RI, ET-1 + treatment Week 5” value [1] was 0.51+0.02. The “OA-RI, ET-1 + treatment Week 6” value [1] was 0.48 ± 0.07, the “OA-RI, ET-1 (1st dose) Week 2” value [1] was 0.51 ± 0.01 and the “Effect on OA-RI / ocular perfusion (in words)” value [1] was “not effective; also recorded: only resulted in minor activity”. For the same compound, the “OA-RI, Baseline Week 0” value [1] was 0.34 ± 0.02.

For `COc1ccc(CNc2nc(N3CCC[C@H]3COC(=O)CCCCCO[N+](=O)[O-])ncc2C(=O)NCc2ncccn2)cc1Cl` [Compound (I), [(2S)-1-(4-{[(3-Chloro-4-methoxyphenyl)methyl]amino}-5-{[(pyrimidin-2-yl)methyl]carbamoyl}pyrimidin-2-yl)pyrrolidin-2-yl]methyl 6-(nitrooxy)hexanoate], the “Effect on OA-RI (in words)” value ([2]; ET-1 rabbit model, topical dosing) was “reduced ophthalmic artery resistive index (OA-RI)”, the “OA-RI, ET-1 (2 weeks)” value ([2]; after 2 weeks ET-1 twice weekly, before first dose of test item, mean±SD) was 0.48 ± 0.06 and the “Ophthalmic artery resistive index (OA-RI), Baseline” value ([2]; mean±SD) was 0.40±0.08. The “Ophthalmic artery resistive index (OA-RI), Baseline” value ([2]; mean±SD, listed as Cpd (I)) was 0.40 ± 0.08, the “OA-RI, ET-1 (4-weeks) + Test items (2 weeks daily bid)” value ([2]; mean±SD) was 0.43±0.09 and the “OA-RI, ET-1 (4-weeks) + Test items (2 weeks daily bid)” value ([2]; mean±SD, listed as Cpd (I)) was 0.43 ± 0.09. The “OA-RI, ET-1 (6 weeks) + Test items (4 weeks daily bid)” value ([2]; mean±SD) was 0.43±0.04, the “OA-RI, ET-1 (6 weeks) + Test items (4 weeks daily bid)” value ([2]; mean±SD, listed as Cpd (I)) was 0.43 ± 0.04 and the “Effect on retinal function / ERG (in words)” value ([3]; ET-1 rabbit model, 4 weeks topical dosing) was “increased photoreceptor activity; also recorded: less impairment in the ERG wave amplitude than those treated with vehicle”. The “ERG Amplitude, ET-1 (6 weeks) + Test items (4 weeks daily bid)” value ([3]; Light adapted 3.0 (Rod/cone response), 1% w/w, 30 microL/eye topical bid, ± S.D.) was 131.6 ± 46.4 μV, the “ERG Amplitude, ET-1 (2 weeks)” value ([3]; Light adapted 3.0 (Rod/cone response), before first dose of test item, ± S.D.) was 100.5 ± 33.3 μV and the “ERG Amplitude, Baseline” value ([3]; Light adapted 3.0 (Rod/cone response), prior to ET-1, ± S.D.) was 115.9 ± 30.0 μV. For the same compound, the “OA-RI, ET-1 + treatment Week 3” value [1] was 0.41 ± 0.01, the “OA-RI, ET-1 + treatment Week 4” value [1] was 0.37 ± 0.03 and the “OA-RI, ET-1 + treatment Week 5” value [1] was 0.37 ± 0.03. The “OA-RI, ET-1 + treatment Week 6” value [1] was 0.39 ± 0.03, the “OA-RI, ET-1 (1st dose) Week 2” value [1] was 0.46 ± 0.02 and the “Effect on OA-RI / ocular perfusion (in words)” value [1] was “restored baseline OA-RI by week 6; also recorded: ameliorates ocular perfusion”. The “OA-RI, Baseline Week 0” value [1] was 0.34 ± 0.02.

For `O=[N+]([O-])O[C@@H]1CO[C@H]2[C@@H]1OC[C@@H]2O` [ISMN, isosorbide mononitrate], the “Effect on ocular blood flow (in words)” value [4] is listed as “increases blood flow nearby optic nerve head without changes to the choroidal compartment”.
